# Experimental data from the supplement of paper PMC10307832.
# How the values were obtained:
# Assay in all cases: relative viability (nuclei count vs DMSO), 5 days (fraction); higher = more cells survive
# AGI-6780 + Alpelisib = compound: O=C(Nc1cccc(C(F)(F)F)c1)Nc1cc(S(=O)(=O)NC2CC2)ccc1-c1ccsc1 [AGI-6780] + Cc1nc(NC(=O)N2CCC[C@H]2C(N)=O)sc1-c1ccnc(C(C)(C)C(F)(F)F)c1 [Alpelisib] (partner 2 µM)
# Procedure, shortened: (§1)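 Values are medians from duplicate plates. Each reflects relative viability, defined as the nuclei count of treated wells over that of vehicle wells. Lung cancer cell lines in 1536-well plates were pin-tool dosed one day after seeding with one drug alone or with a fixed anchor-drug dose plus five library-drug doses (not always all listed) in √10 steps, then fixed, stained and imaged at 4× after 5 days.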
# AGI-6780 + Dasatinib = compound: O=C(Nc1cccc(C(F)(F)F)c1)Nc1cc(S(=O)(=O)NC2CC2)ccc1-c1ccsc1 [AGI-6780] + Cc1nc(Nc2ncc(C(=O)Nc3c(C)cccc3Cl)s2)cc(N2CCN(CCO)CC2)n1 [Dasatinib] (partner 0.075 µM)
# Procedure, shortened: as §1
# AGI-6780 + Palbociclib = compound: O=C(Nc1cccc(C(F)(F)F)c1)Nc1cc(S(=O)(=O)NC2CC2)ccc1-c1ccsc1 [AGI-6780] + CC(=O)c1c(C)c2cnc(Nc3ccc(N4CCNCC4)cn3)nc2n(C2CCCC2)c1=O [Palbociclib] (partner 0.5 µM)
# Procedure, shortened: as §1
# AGI-6780 + Bortezomib = compound: O=C(Nc1cccc(C(F)(F)F)c1)Nc1cc(S(=O)(=O)NC2CC2)ccc1-c1ccsc1 [AGI-6780] + CC(C)C[C@H](NC(=O)[C@H](Cc1ccccc1)NC(=O)c1cnccn1)B(O)O [Bortezomib] (partner 0.002 µM)
# Procedure, shortened: as §1
Cell Line,relative viability (AGI-6780 + Alpelisib; first compound 0.08 µM),relative viability (AGI-6780 + Alpelisib; first compound 0.253 µM),relative viability (AGI-6780 + Alpelisib; first compound 0.8 µM),relative viability (AGI-6780 + Alpelisib; first compound 2.53 µM),relative viability (AGI-6780 + Alpelisib; first compound 8 µM),relative viability (AGI-6780 + Dasatinib; first compound 0.08 µM),relative viability (AGI-6780 + Dasatinib; first compound 0.253 µM),relative viability (AGI-6780 + Dasatinib; first compound 0.8 µM),relative viability (AGI-6780 + Dasatinib; first compound 2.53 µM),relative viability (AGI-6780 + Dasatinib; first compound 8 µM),relative viability (AGI-6780 + Palbociclib; first compound 0.253 µM),relative viability (AGI-6780 + Palbociclib; first compound 0.8 µM),relative viability (AGI-6780 + Palbociclib; first compound 2.53 µM),relative viability (AGI-6780 + Palbociclib; first compound 8 µM),relative viability (AGI-6780 + Bortezomib; first compound 0.08 µM),relative viability (AGI-6780 + Bortezomib; first compound 0.253 µM),relative viability (AGI-6780 + Bortezomib; first compound 0.8 µM),relative viability (AGI-6780 + Bortezomib; first compound 2.53 µM),relative viability (AGI-6780 + Bortezomib; first compound 8 µM),relative viability (AGI-6780 + Palbociclib; first compound 0.08 µM)
PC-3 [JPC-3],1.02,1.02,0.976,0.983,1.02,0.992,0.974,0.944,0.922,0.923,0.574,0.563,0.566,0.571,0.816,0.796,0.753,0.856,0.782,–
CAL-12T,1.33,1.15,1.29,1.23,1.13,0.549,0.501,0.676,0.4,0.487,0.465,0.651,0.46,0.367,–,1.05,0.944,1.31,1.06,0.407
NCI-H1355,0.98,0.894,0.848,0.696,0.787,0.771,0.712,0.771,0.518,0.776,0.409,0.408,0.354,0.342,1.23,1.28,1.21,1.02,1.24,0.432
RERF-LC-KJ,0.784,0.824,0.779,0.672,0.75,0.895,0.93,0.822,0.511,0.667,1.09,1.07,0.93,1.01,1.06,1.16,1.15,0.798,1.09,1.06
HCC-827,0.937,0.971,0.986,0.952,0.955,0.363,0.23,0.337,0.273,0.293,0.488,0.478,0.466,0.481,0.927,1.1,0.996,1.12,1.15,0.485
NCI-H3122,0.876,0.859,0.892,0.633,0.822,0.86,0.904,0.911,0.669,0.955,0.148,0.172,0.178,0.217,1.11,1,1.05,1.05,0.999,0.217
UMC-11,0.938,0.866,1.07,–,0.947,0.474,0.524,0.662,–,0.488,0.324,0.334,–,0.336,0.671,0.712,1.06,–,1.04,0.34
EPLC-272H,0.88,0.972,0.927,0.785,0.864,–,0.423,0.292,0.285,0.365,0.356,0.318,0.337,0.329,0.905,1.03,0.901,0.766,1.03,0.318
NCI-H1651,0.9,0.963,0.931,0.736,0.886,0.361,0.534,0.528,0.341,0.544,0.538,0.534,0.466,0.547,0.831,0.988,1,0.893,0.957,0.522
NCI-H650,1.15,0.956,1.15,0.855,1.26,0.459,0.528,0.443,0.399,0.426,0.3,0.258,0.333,0.334,0.835,0.926,0.882,0.751,0.961,0.34
LOU-NH91,0.743,0.699,0.685,0.646,0.721,0.533,0.516,0.553,0.531,0.558,0.528,0.521,0.515,0.55,0.475,0.597,0.472,0.605,0.512,0.529
HARA,0.925,0.834,0.585,0.801,0.974,0.229,0.278,0.259,0.179,0.233,0.271,0.167,0.257,0.278,1.24,1.09,0.948,1.19,1.16,0.235
LCLC-103H,0.916,1.01,0.906,0.983,0.78,0.462,0.565,0.51,0.318,0.503,0.476,0.526,0.445,0.463,1.11,1.17,1.02,0.939,1.18,0.487
A-427,1.06,1.02,1.09,0.902,1.06,0.696,0.66,0.759,0.582,0.668,0.504,0.548,0.462,0.491,1.13,1.02,1.06,0.917,0.991,–
NCI-H441,0.885,0.783,0.713,0.382,0.646,0.669,0.639,0.597,0.548,0.472,0.259,0.232,0.195,0.263,0.514,0.601,0.831,0.45,0.387,0.248
NCI-H1993,0.788,0.675,0.736,0.653,0.693,0.661,0.724,0.713,0.485,0.549,0.649,0.78,–,0.609,1.09,1.13,1.25,0.764,1.12,0.693
NCI-H2023,0.674,0.595,0.596,0.447,0.617,0.591,0.624,0.617,0.507,0.529,0.372,0.421,0.357,0.4,0.994,1.1,1.09,0.92,1.06,0.394

Cell Line,relative viability (AGI-6780 + Alpelisib; first compound 0.08 µM),relative viability (AGI-6780 + Alpelisib; first compound 0.253 µM),relative viability (AGI-6780 + Alpelisib; first compound 0.8 µM),relative viability (AGI-6780 + Alpelisib; first compound 2.53 µM),relative viability (AGI-6780 + Alpelisib; first compound 8 µM),relative viability (AGI-6780 + Dasatinib; first compound 0.08 µM),relative viability (AGI-6780 + Dasatinib; first compound 0.253 µM),relative viability (AGI-6780 + Dasatinib; first compound 0.8 µM),relative viability (AGI-6780 + Dasatinib; first compound 2.53 µM),relative viability (AGI-6780 + Dasatinib; first compound 8 µM),relative viability (AGI-6780 + Palbociclib; first compound 0.253 µM),relative viability (AGI-6780 + Palbociclib; first compound 0.8 µM),relative viability (AGI-6780 + Palbociclib; first compound 2.53 µM),relative viability (AGI-6780 + Palbociclib; first compound 8 µM),relative viability (AGI-6780 + Bortezomib; first compound 0.08 µM),relative viability (AGI-6780 + Bortezomib; first compound 0.253 µM),relative viability (AGI-6780 + Bortezomib; first compound 0.8 µM),relative viability (AGI-6780 + Bortezomib; first compound 2.53 µM),relative viability (AGI-6780 + Bortezomib; first compound 8 µM),relative viability (AGI-6780 + Palbociclib; first compound 0.08 µM)
NCI-H1666,1.08,0.876,1.01,–,0.927,0.785,0.79,0.872,0.708,0.877,0.679,0.616,0.601,0.601,0.819,0.838,0.782,–,0.857,0.605
LCLC-97TM1,0.211,0.246,0.393,–,0.351,0.881,0.887,0.868,0.654,0.817,0.223,0.235,0.212,0.207,0.867,0.78,0.871,0.528,0.68,0.197
NCI-H1755,0.991,0.936,0.948,0.83,0.898,0.479,0.502,0.456,0.351,0.422,0.463,0.426,0.433,0.419,1.01,0.98,0.967,0.83,1.01,0.452
H3255,0.687,0.62,0.728,0.468,0.754,0.349,0.374,0.456,0.353,0.333,0.304,0.307,0.315,0.31,0.572,0.739,0.836,0.69,0.865,0.292
NCI-H2085,0.965,0.978,0.976,0.949,0.885,0.272,0.255,0.276,0.24,0.243,0.5,0.469,0.535,0.5,1.04,1.09,1.02,1.08,1.13,0.469
BEN,1.04,0.966,1.36,–,0.914,0.219,0.348,0.291,0.3,0.377,0.429,0.457,–,0.502,0.657,0.813,0.852,–,0.754,0.488
COR-L23,0.757,0.688,0.67,0.747,0.699,0.548,0.42,0.529,0.496,0.488,0.257,0.298,0.277,0.329,1.05,0.96,0.814,0.935,0.851,0.322
ABC-1,1.14,0.918,1.08,0.829,1.24,0.589,0.57,0.632,0.553,0.712,0.666,0.846,0.608,0.905,0.295,0.35,0.335,0.262,0.378,–
HCC-366,0.589,0.442,0.441,0.278,0.417,0.678,0.608,0.684,0.245,0.556,0.388,0.41,0.29,0.405,1.1,1.06,1.03,1.02,1.11,0.369
SK-LU-1,0.957,0.906,0.797,1,1.02,0.172,0.183,–,0.135,0.17,0.411,0.284,0.409,0.39,1.25,1.45,0.965,1.12,1.4,0.422
NCI-H2009,1.21,1.12,1.17,1.13,1.25,0.27,0.309,0.258,0.312,0.32,0.158,0.262,0.194,0.236,1.03,1.04,0.969,1.07,1.12,0.198
EKVX,0.96,0.839,0.995,0.755,0.898,0.583,0.467,0.598,0.6,0.619,0.368,0.368,0.352,0.406,1.12,1.07,1.05,0.697,0.958,0.411
NCI-H1975,0.71,0.62,0.653,0.526,0.523,0.388,0.345,0.395,–,0.312,0.673,0.531,0.492,0.584,0.337,0.303,0.34,0.331,0.351,0.569
SW 1573,0.876,0.843,0.76,0.649,0.554,0.467,0.516,0.442,–,0.531,0.332,0.479,–,0.37,1.01,1.1,0.915,0.69,0.879,0.399
LU99A,0.528,0.524,0.516,0.518,0.558,0.52,0.58,0.689,0.401,0.629,0.435,0.494,0.334,0.452,1.11,1.04,0.99,0.92,1.26,0.417
NCI-H2405,0.895,0.824,0.506,–,0.767,0.217,0.205,0.188,0.194,0.203,0.532,0.45,0.47,0.526,0.972,0.978,0.925,0.798,1.01,–
